Reference: PMC5371824, “Phosphatidylinositol (4,5)-bisphosphate dynamically regulates the K2P background K^+ channel TASK-2” (Scientific Reports, 2017)
Where a chain is given by its changes, count along the chain named. Entries after “also recorded” stand apart in the source; their conditions may differ.

How the values were obtained:
TASK-2 [1] = molecular target: T1, TASK-2 (Mus musculus, UniProt F6V9U5); assay: Whole-cell patch-clamp of HEK-293 cells expressing TASK-2; format: cell-based; conditions: 100 nM 1,2-dioctanoyl-sn-glycerol, pulses to 0 mV from -75 mV
T1 construct: expressed in transfected cells; host or cells: HEK-293
T1 sequence (F6V9U5 1-502): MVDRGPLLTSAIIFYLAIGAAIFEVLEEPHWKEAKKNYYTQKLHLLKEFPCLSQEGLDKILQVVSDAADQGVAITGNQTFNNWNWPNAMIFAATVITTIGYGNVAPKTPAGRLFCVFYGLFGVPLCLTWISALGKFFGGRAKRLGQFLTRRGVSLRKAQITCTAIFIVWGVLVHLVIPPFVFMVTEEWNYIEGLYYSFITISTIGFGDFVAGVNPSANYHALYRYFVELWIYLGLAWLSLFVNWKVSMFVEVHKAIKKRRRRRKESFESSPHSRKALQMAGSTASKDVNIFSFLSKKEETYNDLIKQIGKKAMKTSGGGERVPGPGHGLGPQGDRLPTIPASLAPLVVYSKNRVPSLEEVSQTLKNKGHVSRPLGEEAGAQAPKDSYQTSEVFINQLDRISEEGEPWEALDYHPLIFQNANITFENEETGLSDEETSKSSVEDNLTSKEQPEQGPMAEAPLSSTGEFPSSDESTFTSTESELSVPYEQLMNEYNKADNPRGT
Protocol: (§1) Mus musculus TASK-2 (GenBank accession No. AF319542) plasmid was that obtained from mouse kidney. The cDNAs was subcloned into the pCR3.1 vector. Mutations were made by site-directed mutagenesis into the pCR3.1 vector as previously described[69] and confirmed by sequencing. HEK-293 cells were cultured in Dulbecco’s modified Eagle’s medium (DMEM) and F12 Ham’s medium at a 1:1 ratio and supplemented with 10% fetal calf serum at 37 °C in 5% CO2. For electrophysiological experiments, transient transfections were performed by electroporation, using CD8 cotransfection to identify effectively transfected cells. […] Experiments were performed 4–8 h after electroporation. In experiments with the voltage-sensitive phosphatase TASK-2 or its mutants were co-electroporated with a pCR3.1-DrVSP-IRES-CD8 vector.
Transiently transfected HEK-293 cells in 35 mm Petri dishes were transferred to the stage of an inverted microscope for study. There they were continuously superfused with a bathing solution containing (in mM): 67.5 Na2SO4, 4 KCl, 1 K gluconate, 2 CaCl2, 1 MgCl2, 105 sucrose, and 10 Hepes/Tris (pH 7.5) (standard solution). A high K^+ solution was obtained by equimolar replacement of Na^+ by K^+. The pipette solution contained (mM) 8 KCl, 132 potassium gluconate, 1 MgCl2, 10 EGTA, 1 Na3ATP, 0.1 GTP, 10 HEPES/Tris, pH 7.4. Standard whole-cell, patch-clamp recordings were performed as described elsewhere. All our whole-cell experiments keep both intra- and extracellular chloride at 10 mM and although currents were measured at several potentials, data mostly reported are those obtained at 0 mV. Potentials were corrected for liquid junction shifts. Acquisition and analysis was done with Clampfit 9.0 (Axon Instruments, Foster City, CA, USA). Further data analysis was done using the curve fitting features of SigmaPlot v. 12 (Systat Software Inc., San Jose, CA, USA).

TASK-3 = assay: Whole-cell current in TASK-3-expressing cells; format: cell-based; conditions: 100 nM 1,2-dioctanoyl-sn-glycerol, pulses to 0 mV from -75 mV
Protocol: (§2) Figure 3 Gq protein coupled receptor inhibition of TASK-2 and minor effect of diacylglycerol. (A) Effect of activation of the angiotensin II receptor AT1 on TASK-2-mediated currents. HEK-293 cells were co-transfected with AT1 and TASK-2, or the TASK-2-K257A-K258A mutant. Current was monitored by brief pulses to 0 mV from a holding potential of −75 mV. Angiotensin II at a concentration of 1 μM was added during the indicated time. Results are means ± SEM of 6 experiments for TASK-2 and 4 experiments for TASK-2-K257A-K258A. (B) Effect of a diacylglycerol analogue assayed on TASK-2- and TASK-3-expressing cells. Current was monitored by brief pulses to 0 mV from a holding potential of −75 mV. The box labelled DAG indicates the addition of diacylglycerol short-chain analogue 1,2-dioctanoyl-sn-glycerol at 100 nM. Results are means ± SEM of 5 experiments for TASK-2 and 8 experiments for TASK-3.
(§3) Transiently transfected HEK-293 cells in 35 mm Petri dishes were transferred to the stage of an inverted microscope for study. […] All our whole-cell experiments keep both intra- and extracellular chloride at 10 mM and although currents were measured at several potentials, data mostly reported are those obtained at 0 mV. […]

TASK-2 [2] = molecular target: T1, TASK-2; assay: Excised inside-out patch recording from HEK-293 cells over-expressing TASK-2; format: biochemical
Protocol: Recordings in the inside-out isolated patch configuration were performed in the gap-free mode at −60 mV. The inside aspect of the patch was bathed with a solution containing in mM: 10 KCl, 10 Glucose, 1 MgCl2, 10 EGTA, 1 Na3ATP, 0.1 GTP, 6.8 g/100 ml Sucrose, 10 Hepes/Tris, pH 7.4. The pipette contained in mM: 140 KCl, 10 Glucose, 6.8 g/100 ml Sucrose, 10 Hepes/Tris pH 7.4. For isolated patches, borosilicate capillaries (Harvard Apparatus GC150F-10 1.5 ODx0.86 ID) were fire polished to 4–5 MΩ and covered in beeswax. Acquisition was at 10 kHz with filter at 3 kHz (4-pole Bessel) and analysis was done with Clampfit 9.0 (Axon Instruments, Foster City, CA, USA). Traces shown are prints from crude Clampfit screen shots and quantification was done using the average currents were calculated at intervals using Clampfit after baseline adjustment.

TASK-2-K297C = molecular target: T2, TASK-2-K297C (Mus musculus, UniProt F6V9U5, K297C); assay: Excised inside-out patch recording, TASK-2-K297C mutant; format: biochemical; conditions: 2 mM reducing agent, inside-out patch
T2 construct: expressed in transfected cells; host or cells: HEK-293
T2 sequence (F6V9U5 1-502 K297C): T1 sequence (F6V9U5 1-502) with K297C
Protocol: Figure 6 Scanning of potential sites of interaction of TASK-2 with PI(4,5)P2 by cysteine mutagenesis of intracellular basic residues. (A) Schematic representation of TASK-2 topology showing the sequences of segments of the protein predicted to be intracellular or intracellular-facing. Basic residues are highlighted in red. (B) Recording from an excised inside-out patch of membrane taken from a HEK-293 cell over-expressing TASK-2. The patch was held at −60 mV in the presence of 1 mM ATP. At the intervals indicated by the boxes the intracellular aspect of the membrane was exposed to 300 μM Neomycin and then to 100 μM TPeA. At the end of the TPeA period the patch was additionally exposed to 1 mM MTSET as shown by the black box. (C and D) experiments as in (B), but with inside-out membrane patches obtained from cells expressing the mutants TASK-2-H327C and TASK-2-K297C respectively. In D the reducing agent DTT was also added at 2 mM. (E) Summary of experiments comparing the current before and after treatment with MTSET.
as §1, with “In experiments with the voltage-sensitive phosphatase TASK-2 or its mutants were co-electroporated with a pCR3.1-DrVSP-IRES-CD8 vector.” left out
Recordings in the inside-out isolated patch configuration were performed in the gap-free mode at −60 mV. […] Traces shown are prints from crude Clampfit screen shots and quantification was done using the average currents were calculated at intervals using Clampfit after baseline adjustment.

[3] = tested on: TASK-2 expressed with angiotensin II AT1 receptors; assay: Whole-cell current in HEK-293 cells co-transfected with AT1 and TASK-2; format: cell-based, Mus musculus; conditions: 1 μM, pulses to 0 mV from -75 mV
Protocol: Transiently transfected HEK-293 cells in 35 mm Petri dishes were transferred to the stage of an inverted microscope for study. There they were continuously superfused with a bathing solution containing (in mM): 67.5 Na2SO4, 4 KCl, 1 K gluconate, 2 CaCl2, 1 MgCl2, 105 sucrose, and 10 Hepes/Tris (pH 7.5) (standard solution). […] All our whole-cell experiments keep both intra- and extracellular chloride at 10 mM and although currents were measured at several potentials, data mostly reported are those obtained at 0 mV. […]

TASK-2-K257A-K258A = assay: Whole-cell current in HEK-293 cells co-transfected with AT1 and TASK-2-K257A-K258A; format: cell-based, Mus musculus; conditions: 1 μM, pulses to 0 mV from -75 mV, Gβγ-insensitive mutant
Protocol: as §2
Mus musculus TASK-2 (GenBank accession No. AF319542) plasmid was that obtained from mouse kidney. The cDNAs was subcloned into the pCR3.1 vector. […]
as §3

Molecule: CCCCCCCC(=O)OC[C@H](CO)OC(=O)CCCCCCC [DAG, 1,2-dioctanoyl-sn-glycerol]
- Effect on TASK-2 current (TASK-2 [1]): only a minor effect
- Effect on TASK-3 current (TASK-3): strong inhibition

Molecule: O[C@@H](CS)[C@@H](O)CS (racemic) [DTT, dithiothreitol]
- Reversal of MTSET inhibition of WT TASK-2 (TASK-2 [2]; 2 mM reducing agent, inside-out patch, Fig. S4): reversibility of the effect
- Reversal of the MTSET effect on TASK-2-K297C (TASK-2-K297C): reversed, at least partially

Molecule: CCCCC[N+](CCCCC)(CCCCC)CCCCC [TPeA, tetrapentyl ammonium]
- IC50 (TASK-2 [2]): ~2 µM

Molecule: CCCCCCCC(=O)OC[C@H](COP(=O)(O)O[C@H]1[C@H](O)[C@@H](O)[C@H](OP(=O)(O)O)[C@@H](O)[C@H]1O)OC(=O)CCCCCCC [PI(4)P, phosphatidylinositol 4-monophosphate diC8]
- Effect of readmitted ATP relative to the maximal effect elicited by the PIP (TASK-2 [2]; 1 mM ATP added after PIP, inside-out patches, Fig. S3): 5.6 fold
- Stimulating effect on TASK-2-mediated currents after run-down (TASK-2 [2]; diC8 PIP added to inside-out excised patches, absence of ATP): quite small; also recorded: rather weak
- Maximal fold effect on TASK-2 current (normalised to current in absence of PIP) (TASK-2 [2]; diC8 PIP, inside-out patch, -60 mV, absence of ATP, from fits, means ± SEM): 1.4 ± 0.4 fold
- EC50 (TASK-2 [2]; diC8 PIP, inside-out patch, -60 mV, absence of ATP, from fits, means ± SEM, read-out: K0.5 (EC50) for activation of TASK-2 current): 50.6 ± 1.3 µM
- Hill coefficient nH of dose response curve (TASK-2 [2]; diC8 PIP, inside-out patch, absence of ATP): 2

Molecule: angiotensin II (DRVYIHPF; Angiotensin-2; UniProt P01019 25-32, looked up) [agonist of the Gq-coupled angiotensin II AT1 receptor]
- Effect on TASK-2-mediated current via AT1 receptor [3]: markedly inhibited
- Effect on TASK-2-K257A-K258A current via AT1, compared with TASK-2 (TASK-2-K257A-K258A): not significantly different
